Test results: the supplement of paper PMC11061612

What was measured:
Assay in all cases: combination Emax (second highest fraction inhibited in the dose matrix, 72 h); higher = more inhibition; extreme values may be limits of the assay
ES6 (Ewing's Sarcoma) = tested on: ES6 (Ewing's Sarcoma)
How it was run: (§1)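 Cell lines grown in DMEM/F12 or RPMI with 10% FBS were plated in 1536-well plates and held 24 hours at 37°C, 5% CO2 before 72 hours of exposure to two-drug dose matrices, with DMSO typically at 0.2%. CellTiter-Glo 2.0 luminescence gave viability, which was converted to inhibition. Vehicle wells were set to 0 and blank wells to 1. Combination Emax is the second-highest inhibition in the matrix, and Bliss excess is the observed combination effect minus the expected EA + EB − EA·EB, where EA and EB are the single-agent effects.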

[1] = tested on: KP-4 (Pancreatic Carcinoma)
How it was run: as §1

[2] = tested on: MS-1 (Small Cell Lung Carcinoma)
How it was run: as §1

[3] = tested on: CPC-N (Small Cell Lung Carcinoma)
How it was run: as §1

[4] = tested on: MDA-MB-415 (Breast Carcinoma)
How it was run: as §1

[5] = tested on: BxPC-3 (Pancreatic Carcinoma)
How it was run: as §1

[6] = tested on: RCC-JW (Kidney Carcinoma)
How it was run: as §1

UACC-257 (Melanoma) = tested on: UACC-257 (Melanoma)
How it was run: as §1

NB1 (Neuroblastoma) = tested on: NB1 (Neuroblastoma)
How it was run: as §1

WM35 (Melanoma) = tested on: WM35 (Melanoma)
How it was run: as §1

[7] = tested on: NCI-H1963 (Small Cell Lung Carcinoma)
How it was run: as §1

AM-38 (Glioblastoma) = tested on: AM-38 (Glioblastoma)
How it was run: as §1

[8] = tested on: CL-11 (Colorectal Carcinoma)
How it was run: as §1

[9] = tested on: SNU-C2B (Colorectal Carcinoma)
How it was run: as §1

[10] = tested on: C-33-A (Cervical Carcinoma)
How it was run: as §1

[11] = tested on: SCC-4 (Oral Cavity Carcinoma)
How it was run: as §1

NCI-H2373 (Mesothelioma) = tested on: NCI-H2373 (Mesothelioma)
How it was run: as §1

[12] = tested on: OVCAR-3 (Ovarian Carcinoma)
How it was run: as §1

[13] = tested on: SK-CO-1 (Colorectal Carcinoma)
How it was run: as §1

[14] = tested on: NMC-G1 (Low Grade Glioma)
How it was run: as §1

| Structure (SMILES) | combination Emax (ES6 (Ewing's Sarcoma)) | combination Emax [1] | combination Emax [2] | combination Emax [3] | combination Emax [4] | combination Emax [5] | combination Emax [6] | combination Emax (UACC-257 (Melanoma)) | combination Emax (NB1 (Neuroblastoma)) | combination Emax (WM35 (Melanoma)) | combination Emax [7] | combination Emax (AM-38 (Glioblastoma)) | combination Emax [8] | combination Emax [9] | combination Emax [10] | combination Emax [11] | combination Emax (NCI-H2373 (Mesothelioma)) | combination Emax [12] | combination Emax [13] | combination Emax [14] |
| --- | --- | --- | --- | --- | --- | --- | --- | --- | --- | --- | --- | --- | --- | --- | --- | --- | --- | --- | --- | --- |
| CC1(C)CCC(CN2CCN(c3ccc(C(=O)NS(=O)(=O)c4ccc(NCC5CCOCC5)c([N+](=O)[O-])c4)c(Oc4cnc5[nH]ccc5c4)c3)CC2)=C(c2ccc(Cl)cc2)C1 [Venetoclax] + Cc1cc2ncnn2cc1Nc1ncc2c(n1)n(C1CCOCC1)c(=O)n2C [AZD7648] (first compound max 1 µM, 7x7, partner max 10 µM) | 0.37 | 0.126 | 0.445 | 0.84 | 0.342 | 0.283 | 0.151 | 0.159 | 0.561 | 0.204 | 0.744 | 0.318 | 0.157 | 0.26 | 0.401 | 0.235 | 0.39 | 0.196 | 0.229 | 0.192 |
| CN(C)CCCOc1ccc(-c2ccc3ncc4c(c3c2)n(C2CCOCC2)c(=O)n4C)cn1 [AZD0156] + C=CCn1c(=O)c2cnc(Nc3ccc(N4CCN(C)CC4)cc3)nc2n1-c1cccc(C(C)(C)O)n1 [AZD1775] (first compound max 1 µM, partner max 1 µM) | 0.306 | 0.571 | 0.877 | 0.972 | 0.177 | 0.457 | 0.221 | 0.14 | 0.936 | 0.348 | 0.87 | 0.437 | 0.545 | 0.55 | 0.894 | 0.526 | 0.408 | 0.32 | 0.562 | 0.264 |
| Cc1c2c(nn1C)CSCc1cc(n(C)n1)CSc1cc(c3ccccc3c1)OCCCc1c(C(=O)O)n(C)c3c-2c(Cl)ccc13 [AZD5991] + CC1(C)CCC(CN2CCN(c3ccc(C(=O)NS(=O)(=O)c4ccc(NCC5CCOCC5)c([N+](=O)[O-])c4)c(Oc4cnc5[nH]ccc5c4)c3)CC2)=C(c2ccc(Cl)cc2)C1 [Venetoclax] (first compound max 1 µM, 7x7, partner max 1 µM) | 0.255 | 0.157 | 0.76 | 0.289 | 0.73 | 0.334 | 0.23 | 0.308 | 0.535 | 0.243 | 0.824 | 0.597 | 0.137 | 0.201 | 0.484 | 0.345 | 0.161 | 0.171 | 0.16 | 0.157 |
| CC1(C)CCC(CN2CCN(c3ccc(C(=O)NS(=O)(=O)c4ccc(NCC5CCOCC5)c([N+](=O)[O-])c4)c(Oc4cnc5[nH]ccc5c4)c3)CC2)=C(c2ccc(Cl)cc2)C1 [Venetoclax] + Cn1cnc2c(F)c(Nc3ccc(Br)cc3Cl)c(C(=O)NOCCO)cc21 [Selumetinib] (first compound max 1 µM, 7x7, partner max 3 µM) | 0.162 | 0.131 | 0.396 | 0.734 | 0.176 | 0.323 | 0.144 | 0.621 | 0.0633 | 0.757 | 0.76 | 0.498 | 0.528 | 0.27 | 0.324 | 0.164 | 0.295 | 0.126 | 0.727 | 0.175 |
| CN(CCO)CC[C@H](CSc1ccccc1)Nc1ccc(S(=O)(=O)NC(=O)c2ccc(N3CCC([C@@H](O)c4ccccc4-c4ccc(Cl)cc4)CC3)cc2)cc1S(=O)(=O)C(F)(F)F [AZD4320] + C1CN(CCC1(C(=O)N[C@@H](CCO)C2=CC=C(C=C2)Cl)N)C3=NC=NC4=C3C=CN4 [Capivasertib] (first compound max 1 µM, 7x7, partner max 3 µM) | 0.291 | 0.101 | 0.52 | 0.945 | 0.968 | 0.0788 | 0.615 | 0.1 | 0.689 | 0.215 | 1 | 0.561 | 0.147 | 0.201 | 0.518 | 0.598 | 0.409 | 0.147 | 0.659 | 0.507 |
| CC(=O)Nc1cccc(-n2c(=O)n(C3CC3)c(=O)c3c(Nc4ccc(I)cc4F)n(C)c(=O)c(C)c32)c1 [Trametinib] + Cc1nc(-c2cn3c(n2)-c2ccc(-c4cnn(C(C)(C)C(N)=O)c4)cc2OCC3)n(C(C)C)n1 [Taselisib] (first compound max 1 µM, 7x7, partner max 10 µM) | 0.607 | 0.694 | 0.513 | 0.362 | 0.848 | 1 | 0.556 | 0.806 | 0.995 | 0.97 | 0.435 | 0.909 | 0.989 | 0.676 | 0.669 | 0.992 | 0.766 | 0.652 | 1 | 0.488 |
